Laboratory results reported in publication PMC8159961, “Exploring protein hotspots by optimized fragment pharmacophores” (Nature Communications, 2021).

Legend:
human 5-HT1A receptor = target: T1, human 5-HT1A receptor (Homo sapiens, UniProt P08908); test: GPCR radioligand binding assay, [3H]-8-OH-DPAT displacement, HEK293 membranes; details: for %inh 5-HT1A average: average of exp_1 and exp_2; for %inh 5-HT1A corrected*: average, values below 0 and above 100% were set as 0 and 100; for %inh 5-HT1A exp_1: replicate exp_1; for %inh 5-HT1A exp_2: replicate exp_2; for 5-HT1A % Inhibition by plate position: 10 µM
T1 construct: expressed in transfected cells
T1 sequence (P08908 1-422): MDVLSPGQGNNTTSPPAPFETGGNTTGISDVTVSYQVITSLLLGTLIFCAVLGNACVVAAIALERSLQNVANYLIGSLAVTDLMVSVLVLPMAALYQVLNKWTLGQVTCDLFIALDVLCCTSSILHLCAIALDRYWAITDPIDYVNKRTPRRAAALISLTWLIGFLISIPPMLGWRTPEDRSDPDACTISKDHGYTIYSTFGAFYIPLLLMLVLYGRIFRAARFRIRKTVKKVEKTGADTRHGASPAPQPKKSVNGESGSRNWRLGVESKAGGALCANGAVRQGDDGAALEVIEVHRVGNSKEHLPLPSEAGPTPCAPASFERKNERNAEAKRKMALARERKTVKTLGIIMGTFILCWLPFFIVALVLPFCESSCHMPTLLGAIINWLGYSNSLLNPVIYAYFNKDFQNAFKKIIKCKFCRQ

human 5-HT7b receptor = target: T2, human 5-HT7b receptor (Homo sapiens, UniProt P34969); test: GPCR radioligand binding assay, [3H]-5-CT displacement, HEK293 membranes; details: for 5-HT7 % Inhibition by plate position: 10 µM; for %inh 5-HT7 average: average of exp_1 and exp_2; for %inh 5-HT7 exp_1: replicate exp_1; for %inh 5-HT7 exp_2: replicate exp_2
T2 construct: expressed in transfected cells
T2 sequence (P34969 1-432): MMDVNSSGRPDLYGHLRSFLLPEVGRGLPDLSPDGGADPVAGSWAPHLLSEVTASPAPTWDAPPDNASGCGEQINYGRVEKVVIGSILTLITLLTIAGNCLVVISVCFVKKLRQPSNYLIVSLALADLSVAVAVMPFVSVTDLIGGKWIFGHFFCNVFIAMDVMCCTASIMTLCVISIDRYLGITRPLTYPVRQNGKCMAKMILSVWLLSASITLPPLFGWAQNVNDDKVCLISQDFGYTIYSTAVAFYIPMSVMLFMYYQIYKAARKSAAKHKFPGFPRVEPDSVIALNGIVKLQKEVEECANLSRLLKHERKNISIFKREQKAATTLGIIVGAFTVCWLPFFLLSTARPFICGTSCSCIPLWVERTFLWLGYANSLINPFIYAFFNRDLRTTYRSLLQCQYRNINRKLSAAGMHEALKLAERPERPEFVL

human 5-HT6 receptor = target: T3, human 5-HT6 receptor (Homo sapiens, UniProt P50406); test: GPCR radioligand binding assay, [3H]-LSD displacement, HEK293 membranes; details: for 5-HT6 % Inhibition by plate position: 10 µM; for %inh 5-HT6 average: average of exp_1 and exp_2; for %inh 5-HT6 corrected*: average, values below 0 and above 100% were set as 0 and 100; for %inh 5-HT6 exp_1: replicate exp_1; for %inh 5-HT6 exp_2: replicate exp_2
T3 construct: expressed in transfected cells
T3 sequence (P50406 whole entry): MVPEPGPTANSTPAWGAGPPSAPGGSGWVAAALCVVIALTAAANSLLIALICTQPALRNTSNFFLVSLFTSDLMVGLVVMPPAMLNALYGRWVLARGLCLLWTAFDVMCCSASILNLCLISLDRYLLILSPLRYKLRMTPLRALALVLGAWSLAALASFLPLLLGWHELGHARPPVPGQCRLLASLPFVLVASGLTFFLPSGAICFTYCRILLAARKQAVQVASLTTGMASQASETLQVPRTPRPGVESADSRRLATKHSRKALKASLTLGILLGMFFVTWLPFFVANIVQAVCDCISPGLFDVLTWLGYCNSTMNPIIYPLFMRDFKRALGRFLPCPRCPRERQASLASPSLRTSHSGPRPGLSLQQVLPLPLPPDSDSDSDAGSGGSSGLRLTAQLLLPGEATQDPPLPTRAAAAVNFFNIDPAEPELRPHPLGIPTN

| SMILES | %inh 5-HT1A average (human 5-HT1A receptor) [%] | %inh 5-HT1A corrected* (human 5-HT1A receptor) [%] | %inh 5-HT1A exp_1 (human 5-HT1A receptor) [%] | %inh 5-HT1A exp_2 (human 5-HT1A receptor) [%] | 5-HT7 % Inhibition by plate position (human 5-HT7b receptor) [%] | %inh 5-HT7 average (human 5-HT7b receptor) [%] | %inh 5-HT7 exp_1 (human 5-HT7b receptor) [%] | %inh 5-HT7 exp_2 (human 5-HT7b receptor) [%] | 5-HT6 % Inhibition by plate position (human 5-HT6 receptor) [%] | %inh 5-HT6 average (human 5-HT6 receptor) [%] | %inh 5-HT6 corrected* (human 5-HT6 receptor) [%] | %inh 5-HT6 exp_1 (human 5-HT6 receptor) [%] | %inh 5-HT6 exp_2 (human 5-HT6 receptor) [%] | 5-HT1A % Inhibition by plate position (human 5-HT1A receptor) [%] |
| --- | --- | --- | --- | --- | --- | --- | --- | --- | --- | --- | --- | --- | --- | --- |
| N#Cc1ccc2ncsc2c1 [C12] | 5.41 | 5.41 | 11 | -0.546 | 0 | -7 | -6 | -8.5 | 35 | 35 | 35 | 39 | 32 |  |
| COc1cccc(NC2=NCCCCC2)c1 [E8] | 11 | 11 | 11 | 11 | 0 | -5 | 3.36 | -13 | 14 | 14 | 14 | 17 | 12 |  |
| Fc1ccc2c(C3CCNCC3)c[nH]c2c1 [H4] | 81 | 81 | 87 | 75 | 78 |  | 78 | 78 | 90 | 90 | 90 | 81 | 98 |  |
| O=C1NC2(CCCC2)Nc2ccccc21 [C9] | -0.0168 |  | 4.43 | -4.46 | 5 |  | -2.47 | 13 | 44 | 44 | 44 | 46 | 41 | 0 |
| O=C1CCCc2occc21 [B3] | -4.51 |  | -9 | 0 | 0 | -2.76 | 8 | -14 | 34 | 34 | 34 | 37 | 30 | 0 |
| Oc1ccc(-n2cncn2)cc1 [H5] | -1.29 |  | -9 | 6 | 25 |  | 29 | 21 | 36 | 36 | 36 | 39 | 32 | 0 |
| CN1CC(=O)NC1=O [B10] | -4.34 |  | 4 | -13 | 0 | -7.6 | -15 | 0 | 35 | 35 | 35 | 31 | 40 | 0 |
| Cc1cc(C)c2c(=O)[nH]n(C)c2n1 [F12] | 5.64 | 5.64 | 4.73 | 6.55 | 11 |  | 14 | 7 | 34 | 34 | 34 | 35 | 32 |  |
| COC(=O)c1c(C)nc(C2CC2)[nH]c1=O [F1] | 16 | 16 | 17 | 15 | 23 |  | 23 | 22 | 41 | 41 | 41 | 38 | 44 |  |
| CC(=O)c1ccc2c(c1)CNCC2 [C8] | -13 |  | -22 | -3.26 | 4 |  | 8 | 0 | 2.55 | 2.55 | 2.55 | 6 | -1 | 0 |
| Oc1nnc(-c2ccccc2)o1 [F7] | -4 |  | 1.6 | -10 | 1 |  | -12 | 14 | 14 | 14 | 14 | 15 | 14 | 0 |
| CC1(C)OC(=O)c2cc(Br)c(O)cc2O1 [C6] | -0.191 |  | -7.5 | 7 | 0.891 |  | 1.78 | 0 | 56 | 56 | 56 | 67 | 45 | 0 |
| O=C1CC(CSc2ccc(Cl)cc2)=NN1 [H8] | -0.353 |  | -4 | 3.38 | 0 | -7 | -1 | -14 | 12 | 12 | 12 | 9 | 14 | 0 |
| CCn1cnc2ccccc21 [D4] | -8 |  | -16 | 0 | 0 | -5.34 | 1.55 | -12 | 23 | 23 | 23 | 23 | 23 | 0 |
| Oc1cnc(-c2ccccc2)nc1 [F11] | 6.48 | 6.48 | 14 | -1.43 | 0.572 |  | -8 | 9 | 41 | 41 | 41 | 42 | 39 |  |
| NC(c1ccccc1)c1ccccc1 [C3] | -12 |  | -22 | -1.84 | 0 | -9 | -16 | -1 | 25 | 25 | 25 | 16 | 33 | 0 |
| O=C1CCN(c2ccncc2)CC1 [G7] | 0.831 | 0.831 | -1.88 | 3.54 | 3.28 |  | -1.58 | 8 | 7 | 7 | 7 | 7.61 | 7 |  |
| COc1ccccc1C1CCNCC1 [A11] | 99 | 99 | 100 | 98 | 73 |  | 64 | 81 | 71 | 71 | 71 | 82 | 59 |  |
| Fc1ccc(CC2CCCNC2)cc1 (stereo not shown) [C1] | 21 | 21 | 23 | 19 | 22 |  | 27 | 18 | 42 | 42 | 42 | 47 | 37 |  |
